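Test compounds were applied to cells in 96-well plates for 48 hours at 5 doses. TGI denotes the concentration required for complete inhibition of growth.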
How the values were obtained:
Experiment in all cases: NCI-60 cell line screen, 48 h
A498 renal = system: A498 renal
BT-549 breast = system: BT-549 breast
HCT-15 colon = system: HCT-15 colon
HOP-62 NSCLC = system: HOP-62 NSCLC
HS 578T breast = system: HS 578T breast
KM12 colon = system: KM12 colon
PC-3 prostate = system: PC-3 prostate
UACC-257 melanoma = system: UACC-257 melanoma
UO-31 renal = system: UO-31 renal

C=CCN(c1cc(OC)c(NC(C)=O)cc1[N+](=O)[O-])S(C)(=O)=O
TGI (A498 renal): > 100 µM | TGI (BT-549 breast): > 100 µM | TGI (HCT-15 colon): > 100 µM | TGI (HOP-62 NSCLC): > 100 µM | TGI (HS 578T breast): > 100 µM | TGI (KM12 colon): > 100 µM | TGI (PC-3 prostate): > 100 µM | TGI (UACC-257 melanoma): > 100 µM | TGI (UO-31 renal): > 100 µM

O=C(Nc1ccccc1)c1cc(S(=O)(=O)Nc2n[nH]c(=O)n2-c2ccccc2)c(S)cc1Cl
TGI (A498 renal): > 100 µM | TGI (BT-549 breast): > 100 µM | TGI (HCT-15 colon): > 100 µM | TGI (HS 578T breast): > 100 µM | TGI (KM12 colon): > 100 µM | TGI (PC-3 prostate): > 100 µM | TGI (UACC-257 melanoma): > 100 µM | TGI (UO-31 renal): > 100 µM

CC(/C=C/C(=O)NO)=C\C(C)C(=O)c1ccc(N(C)C)cc1 (centres undefined)
TGI (A498 renal): 0.257 µM | TGI (BT-549 breast): > 60.4 µM | TGI (HCT-15 colon): 21.4 µM | TGI (HOP-62 NSCLC): 14.6 µM | TGI (HS 578T breast): 0.133 µM | TGI (KM12 colon): 0.932 µM | TGI (PC-3 prostate): 10.7 µM | TGI (UACC-257 melanoma): 0.387 µM | TGI (UO-31 renal): 0.262 µM

COc1ccc(C(=O)C#Cc2cn(C3CC(O)C(CO)O3)c(=O)[nH]c2=O)cc1 (centres undefined)
TGI (BT-549 breast): 40.4 µM | TGI (HCT-15 colon): > 100 µM | TGI (HOP-62 NSCLC): > 100 µM | TGI (HS 578T breast): > 100 µM | TGI (KM12 colon): > 100 µM | TGI (PC-3 prostate): > 100 µM | TGI (UACC-257 melanoma): > 100 µM | TGI (UO-31 renal): > 100 µM

N#CC12C(=O)NC(=O)C1(C#N)C1C=CC2CC1 (centres undefined)
TGI (BT-549 breast): > 100 µM | TGI (HCT-15 colon): > 100 µM | TGI (HS 578T breast): > 100 µM | TGI (KM12 colon): > 100 µM | TGI (PC-3 prostate): > 100 µM | TGI (UACC-257 melanoma): > 100 µM | TGI (UO-31 renal): > 100 µM

Cc1c(C)c2ccc(OCC(O)COC(C)C)c(C)c2oc1=O (centres undefined)
TGI (HOP-62 NSCLC): 58.6 µM | TGI (HS 578T breast): > 100 µM | TGI (KM12 colon): > 100 µM | TGI (PC-3 prostate): > 100 µM | TGI (UACC-257 melanoma): 43.4 µM | TGI (UO-31 renal): > 100 µM

CSC12c3cc(C)n(-c4ccc([N+](=O)[O-])cc4)c3CC(C)(C)CN1C(=O)C2Oc1ccccc1 (centres undefined)
TGI (A498 renal): > 100 µM | TGI (BT-549 breast): > 100 µM | TGI (HCT-15 colon): > 100 µM | TGI (HOP-62 NSCLC): > 100 µM | TGI (KM12 colon): > 100 µM | TGI (PC-3 prostate): > 100 µM | TGI (UACC-257 melanoma): > 100 µM | TGI (UO-31 renal): > 100 µM

c1csc(-c2nn3c(C45CC6CC(CC(C6)C4)C5)nnc3s2)c1
TGI (A498 renal): > 100 µM | TGI (HCT-15 colon): > 100 µM | TGI (HOP-62 NSCLC): > 100 µM | TGI (HS 578T breast): > 100 µM | TGI (PC-3 prostate): > 100 µM | TGI (UACC-257 melanoma): > 100 µM | TGI (UO-31 renal): > 100 µM

O=c1nc2n3c4c(cccc4nc-2c(=O)[nH]1)CCC3
TGI (BT-549 breast): > 100 µM | TGI (HCT-15 colon): > 100 µM | TGI (HOP-62 NSCLC): > 100 µM | TGI (HS 578T breast): > 100 µM | TGI (KM12 colon): > 100 µM | TGI (PC-3 prostate): > 100 µM | TGI (UACC-257 melanoma): > 100 µM | TGI (UO-31 renal): > 100 µM

CCOC(=O)C(C(=O)OCC)=C1SC(=Nc2ccccc2)C(=Nc2ccccc2)N1c1ccccc1
TGI (A498 renal): > 100 µM | TGI (BT-549 breast): > 100 µM | TGI (HCT-15 colon): > 100 µM | TGI (HOP-62 NSCLC): > 100 µM | TGI (HS 578T breast): > 100 µM | TGI (KM12 colon): > 100 µM | TGI (PC-3 prostate): > 100 µM | TGI (UO-31 renal): > 100 µM

CSc1ncnc2c1ncn2CCC(=O)O
TGI (A498 renal): > 100 µM | TGI (HOP-62 NSCLC): > 100 µM | TGI (KM12 colon): > 100 µM | TGI (PC-3 prostate): > 100 µM | TGI (UACC-257 melanoma): > 100 µM | TGI (UO-31 renal): > 100 µM

CSC1=N/C(=C\c2ccc(Cl)cc2)C(=O)N1CN1CCCCC1
TGI (A498 renal): > 100 µM | TGI (HCT-15 colon): > 100 µM | TGI (HOP-62 NSCLC): > 100 µM | TGI (HS 578T breast): > 100 µM | TGI (KM12 colon): > 100 µM | TGI (PC-3 prostate): > 100 µM | TGI (UO-31 renal): > 100 µM

CCOC(=O)C1(C#N)OC(=O)c2cnccc21 (centres undefined)
TGI (A498 renal): > 100 µM | TGI (BT-549 breast): > 100 µM | TGI (HCT-15 colon): > 100 µM | TGI (HS 578T breast): > 100 µM | TGI (KM12 colon): > 100 µM | TGI (PC-3 prostate): > 100 µM | TGI (UACC-257 melanoma): > 100 µM | TGI (UO-31 renal): > 100 µM

Cc1cc(S(=O)(=O)NC2=NCc3nc4ccccc4n32)c(S)cc1Cl
TGI (A498 renal): 70.7 µM | TGI (BT-549 breast): 71.9 µM | TGI (HCT-15 colon): 59.1 µM | TGI (HS 578T breast): 63.3 µM | TGI (KM12 colon): 38 µM | TGI (PC-3 prostate): 55.6 µM | TGI (UACC-257 melanoma): 62.2 µM | TGI (UO-31 renal): 63.6 µM

NC(=O)C1CCCN1C(=O)C(Cc1cnc[nH]1)NC(=O)C1CCCC1 (centres undefined)
TGI (A498 renal): > 100 µM | TGI (BT-549 breast): > 100 µM | TGI (HCT-15 colon): > 100 µM | TGI (HOP-62 NSCLC): > 100 µM | TGI (HS 578T breast): > 100 µM | TGI (KM12 colon): > 100 µM | TGI (PC-3 prostate): > 100 µM | TGI (UO-31 renal): > 100 µM

COC(=O)CCC(=O)c1ccc2c(c1)CCC2
TGI (A498 renal): > 100 µM | TGI (HCT-15 colon): > 100 µM | TGI (HOP-62 NSCLC): > 100 µM | TGI (HS 578T breast): > 100 µM | TGI (PC-3 prostate): > 100 µM | TGI (UACC-257 melanoma): > 100 µM | TGI (UO-31 renal): > 100 µM

Cc1ccc2c(=O)cc(-c3sccc3C)[nH]c2n1
TGI (A498 renal): > 35 µM | TGI (BT-549 breast): > 100 µM | TGI (HCT-15 colon): > 40.6 µM | TGI (HOP-62 NSCLC): > 100 µM | TGI (HS 578T breast): 13.6 µM | TGI (KM12 colon): > 59.5 µM | TGI (PC-3 prostate): > 28 µM | TGI (UO-31 renal): 23.8 µM

CC1CC(N)=C(C#N)C1(C#N)C#N (centres undefined)
TGI (A498 renal): > 100 µM | TGI (HCT-15 colon): > 100 µM | TGI (HS 578T breast): > 100 µM | TGI (KM12 colon): > 100 µM | TGI (PC-3 prostate): > 100 µM | TGI (UACC-257 melanoma): > 100 µM | TGI (UO-31 renal): > 100 µM

N#CC(c1ccccc1)N(CCCCCCN(C(=O)c1ccccc1)C(C#N)c1ccccc1)C(=O)c1ccccc1 (centres undefined)
TGI (A498 renal): 55.9 µM | TGI (BT-549 breast): > 100 µM | TGI (HCT-15 colon): > 100 µM | TGI (HS 578T breast): 83.6 µM | TGI (KM12 colon): > 100 µM | TGI (PC-3 prostate): > 100 µM | TGI (UACC-257 melanoma): 63.9 µM | TGI (UO-31 renal): 46.1 µM

CCOC1OC(COC(=O)C(C)(C)C)C(O)CC1n1cc(C)c(=O)[nH]c1=O (centres undefined)
TGI (A498 renal): > 100 µM | TGI (BT-549 breast): > 100 µM | TGI (HCT-15 colon): > 100 µM | TGI (HS 578T breast): > 100 µM | TGI (KM12 colon): > 100 µM | TGI (PC-3 prostate): > 100 µM | TGI (UACC-257 melanoma): > 100 µM | TGI (UO-31 renal): > 100 µM

CC(=O)OCCn1cnc2c(NCC=C(C)C)ncnc21
TGI (A498 renal): > 100 µM | TGI (HOP-62 NSCLC): > 100 µM | TGI (HS 578T breast): > 100 µM | TGI (KM12 colon): > 100 µM | TGI (PC-3 prostate): > 100 µM | TGI (UACC-257 melanoma): > 100 µM | TGI (UO-31 renal): > 100 µM

OC1(C(Sc2cc(C(F)(F)F)cc(C(F)(F)F)c2)Sc2cc(C(F)(F)F)cc(C(F)(F)F)c2)C=CCCC1 (centres undefined)
TGI (A498 renal): 4.58 µM | TGI (BT-549 breast): 9.89 µM | TGI (HCT-15 colon): 4.13 µM | TGI (HOP-62 NSCLC): 11.4 µM | TGI (HS 578T breast): 13.3 µM | TGI (KM12 colon): 5.83 µM | TGI (UACC-257 melanoma): 3.56 µM | TGI (UO-31 renal): 3.66 µM

COc1ccccc1Nc1nc2c([nH]1)c(=O)n(C)c(=O)n2C
TGI (HCT-15 colon): > 10 µM | TGI (HOP-62 NSCLC): > 10 µM | TGI (KM12 colon): > 10 µM | TGI (PC-3 prostate): > 10 µM | TGI (UACC-257 melanoma): > 10 µM

CCOC(=O)Cc1csc(NC(NC(=O)OCC)(C(=O)OCC)C(F)(F)F)n1 (centres undefined)
TGI (A498 renal): > 100 µM | TGI (HCT-15 colon): > 100 µM | TGI (HOP-62 NSCLC): > 100 µM | TGI (HS 578T breast): > 100 µM | TGI (KM12 colon): > 100 µM | TGI (PC-3 prostate): > 100 µM | TGI (UACC-257 melanoma): > 100 µM | TGI (UO-31 renal): > 100 µM

FC1(F)[Se]C2C3CCC(C3)C2C1(F)F (centres undefined)
TGI (A498 renal): > 100 µM | TGI (HCT-15 colon): > 100 µM | TGI (HOP-62 NSCLC): > 100 µM | TGI (HS 578T breast): > 100 µM | TGI (KM12 colon): > 100 µM | TGI (PC-3 prostate): > 100 µM | TGI (UO-31 renal): > 100 µM

C=CCOC(=O)CC[C@H](NC(=O)[C@@H](CCC(F)(F)F)Cc1ccc(O)cc1)C(=O)OCC=C
TGI (BT-549 breast): > 100 µM | TGI (HCT-15 colon): > 100 µM | TGI (HOP-62 NSCLC): > 100 µM | TGI (HS 578T breast): > 100 µM | TGI (KM12 colon): > 100 µM | TGI (UO-31 renal): > 100 µM

From PubChem BioAssay (NCI)
